The text below walks through data of ChEMBL document CHEMBL1154003, “Synthesis of boronic acid derivatives of tyropeptin: proteasome inhibitors” (Bioorg Med Chem Lett, 2009).

One assay has as its system PC-3. The assay can be described thus: Cytotoxicity against human PC3 cells. Type of assay: functional, cell-based.
Assay [1] can be described thus: Inhibition of chymotrypsin-like activity of human 20S proteasome.
The nature of assay [2]: Inhibition of peptidylglutamyl-peptide hydrolyzing activity of human 20S proteasome.
Assay [3] in a line: Inhibition of trypsin-like activity of human 20S proteasome.

Each structure is given as a SMILES string. Activity calls are given as the source filed them. No cut-off for these calls is given here.

Turning to `COc1ccc(CC(C=O)NC(=O)[C@@H](NC(=O)[C@H](Cc2ccc(OC)cc2)NC(=O)Cc2cccc3ccccc23)C(C)C)cc1` (stereo not given in full), in the assay with PC-3, the inhibition entry is “Active”. In addition, the half-inhibitory concentration (IC50) in assay [1] was 0.083 µM; in assay [2] it was more than 40 µM; in assay [3] it was more than 40 µM.

Take `COc1ccc(C[C@H](NC(=O)Cc2cccc3ccccc23)C(=O)N[C@H](C(=O)N[C@@H](CC(C)C)B(O)O)C(C)C)cc1`: the IC50 in assay [1] came out at 0.0026 µM; in assay [2], 0.94 µM; in assay [3], 2.8 µM.

As to `COc1ccc(C[C@H](NC(=O)Cc2cccc3ccccc23)C(=O)N[C@H](C(=O)N[C@@H](Cc2ccccc2)B(O)O)C(C)C)cc1`, the half-maximal inhibitory concentration (IC50) in assay [1] was 0.0044 µM; in assay [2], 7.4 µM; in assay [3], 4.6 µM.

For the molecule `CC(C)C[C@H](NC(=O)[C@H](Cc1ccccc1)NC(=O)c1cnccn1)B(O)O` [BORTEZOMIB], the values for the 50% inhibitory concentration (IC50) in assay [1], in assay [2] and in assay [3] were 0.024 µM, 0.73 µM and more than 40 µM, respectively.

On to `COc1ccc(C[C@H](N)C(=O)N[C@H](C(=O)N[C@@H](CC(C)C)B(O)O)C(C)C)cc1`, for which the results for the IC50 in assay [1], in assay [2] and in assay [3] were 0.021 µM, 1.4 µM and 1.9 µM, respectively.

As to `COc1ccc(C[C@H](NC(=O)[C@@H](NC(=O)[C@H](Cc2ccc(OC)cc2)NC(=O)Cc2cccc3ccccc23)C(C)C)B(O)O)cc1`, the values for the IC50 in assay [1], in assay [2] and in assay [3] were 0.0063 µM, more than 40 µM and 5.6 µM, respectively.

On to `COc1ccc(C[C@H](N)C(=O)N[C@H](C(=O)N[C@@H](Cc2ccccc2)B(O)O)C(C)C)cc1`, for which the 50% inhibitory concentration (IC50) in assay [1] worked out at 0.1 µM; in assay [2] it was 7.7 µM; in assay [3] it was 4 µM.

As to `COc1ccc(C[C@H](NC(=O)[C@@H](NC(=O)[C@@H](N)Cc2ccc(OC)cc2)C(C)C)B(O)O)cc1`, the IC50 in assay [1] was 0.13 µM; in assay [2] it was 16 µM; in assay [3], 3.7 µM.

For orientation: IC50 means the concentration that gives 50% inhibition. The low end stands for inhibition by little substance, the high end for a need for much substance.
